Experimental data as given in US20170158636A1, “FUNCTIONALISED AND SUBSTITUTED CARBAZOLES AS ANTI-CANCER AGENTS” (Novogen Ltd., priority 2014, published 2017).

Assays:
[1] = test system: MDA-MB-231 breast cancer cells; test: Anti-proliferative activity, cell-titre luminescent viability assay; assay type: cell-based; conditions: Homo sapiens, 72 hours exposure
Protocol: (§1) The ability of compounds 1001-1018 and 1037-1039 to inhibit the proliferation of cancer cells representative of neuroblastoma, melanoma, prostate cancer, colorectal cancer, non-small cell lung carcinoma, and triple negative breast cancer was assessed (Table 1).
(§2) Briefly, a pre-determined number of cells as calculated from cell growth assays for each of the cell lines employed were seeded into their respective culture medium (using ATCC culture parameters—http://www.atcc.org) and cultured for 24 hours at 37° C. and 5% CO2 in 96-well culture plates. Once attached, each cell line was then exposed to increasing concentrations of each respective analogue (0.03, 0.3, 3 and 30 μM for compounds 1001-13 and 1015-18; 0.1, 0.3, 1, 3, 10 and 30 μM for compounds 1014 and 1037-39), cultured for a further 72 hours and exposed to cell-titre luminescent reagent (100 μL/well) for a further 30 minutes) to measure cell viability. Luminescence was captured using an EnVision multilabel reader and the data for each analogue concentration compared against no treatment control. For compounds 1001-13 and 1015-18, semi-log plots of Percent of Control versus concentration were prepared and IC50 determined using linear regression analysis. For compounds 1014 and 1037-39, cell viability was normalized to control (vehicle alone) and dose-response curves, and half maximal effective concentration (EC50) values were determined using Graph Pad Prism 6 (nonlinear regression sigmoidal dose-response variable slope).

[2] = test system: PC3 prostate cancer cells; test: as above; assay type: cell-based; conditions: 72 hours exposure
Protocol: as §1, §2

[3] = test system: SK-N-SH neuroblastoma cells; test: as above; assay type: cell-based; conditions: Homo sapiens, 72 hours exposure
Protocol: as §1, §2

[4] = test system: A549 lung (NSLC) cancer cells; test: as above; assay type: cell-based; conditions: Homo sapiens, 72 hours exposure
Protocol: as §1, §2

[5] = test system: DU145 prostate cancer cells; test: as above; assay type: cell-based; conditions: Homo sapiens, DU-145, 72 hours exposure
Protocol: as §1, §2

[6] = test system: CaCo2 colorectal cancer cells; test: as above; assay type: cell-based; conditions: Homo sapiens, Caco-2, 72 hours exposure
Protocol: as §1, §2

SK-Mel-28 melanoma cells = test: as above; assay type: cell-based; conditions: Homo sapiens, 72 hours exposure
Protocol: as §1, §2

TNF-α = test: Cytokine release from LPS-stimulated PBMCs (HTRF); assay type: cell-based; conditions: PBMC, human PBMCs
Protocol: (§3) The ability of compounds 1004, 1007 and 1018 to inhibit the release of cytokines TNF-α, IFN-γ, IL-6, IL-21, IL-17A and IL-23 was evaluated in vitro (Tables 2 and 3). Briefly, human peripheral blood mononuclear cells (PBMCs) were isolated from human peripheral blood by Histopaque density gradient centrifugation. The freshly isolated PBMCs were seeded at 50,000 cells/well in a 96-well half area plate. PBMCs were dosed with the test compounds (at 10 μM, 1 μM and 0.1 μM) and then incubated at 37° C. and 5% CO2 for 2 hours. To stimulate release of the cytokines IFN-γ, IL-21, IL-17A and IL-23, the PBMCs were treated with 50 ng/mL of phorbol 12-myristate 13-acetate (PMA) and 1 μg/mL of ionomycin and to stimulate the release of TNF-α and IL-6, PBMCs were treated with 100 ng/mL of lipopolysaccharide (LPS) from gram-negative bacteria. The PBMCs were then incubated at 37° C. and 5% CO2 for a further 6 hours and the cell supernatant was collected and a Homogenous Time Resolved Fluorescence (HTRF) assay was carried out following the manufacturer's instructions. Cytokine release from the PBMCs was captured using a Perkin Elmer ENVISION 2104 microplate reader set at 615 nm and 665 nm respectively.

IL-6 = test: Cytokine release from LPS-stimulated PBMCs (HTRF); assay type: cell-based; conditions: PBMC, human PBMCs
Protocol: as §3

IL-23 = test: Cytokine release from PMA/ionomycin-stimulated PBMCs (HTRF); assay type: cell-based; conditions: PBMC, human PBMCs, PMA and ionomycin
Protocol: as §3

IFN-γ = test: as above; assay type: cell-based; conditions: PBMC, human PBMCs, PMA and ionomycin
Protocol: as §3

IL-21 = test: as above; assay type: cell-based; conditions: PBMC, human PBMCs, PMA and ionomycin
Protocol: as §3

IL-17A = test: as above; assay type: cell-based; conditions: PBMC, human PBMCs, PMA and ionomycin
Protocol: as §3

[7] = test system: Tpm3.1-containing actin filaments in SK-N-SH neuroblastoma cells; test: Disruption of Tpm3.1-containing actin filaments (γ9d staining); assay type: cell-based; conditions: SK-N-SH cells, 0, 5 and 7.5 μM, 48 hours post treatment
Protocol: FIG. 2: Imaging and quantitation of Tpm3.1-containing actin filaments in SK-N-SH neuroblastoma cells treated with compound (A) 1007, (B) 1013 and (C) 1016. Cells were stained with γ9d (sheep polycolonal, 1:100) followed by 488-conjugated secondary (1:1000) and DAPI to visualize the Tpm3.1 containing filament bundles and the nucleus, respectively. Shown in the top panel is a representative gray scale immunofluorescent image from control (vehicle alone), 5 μM and 7.5 μM treated cells. […] The coloured lines indicate the detected Tpm3.1 containing actin filaments. Also shown is the quantitation of cell number, Tpm3.1 filament number/cell and Tpm3.1 filament number/cell area (μM^2). Statistical analysis was performed using a one way ANNOVA-multiple comparison where each drug treated group was compared to the control. ****p<0.0001.
Another assay was conducted to assess the ability of compounds 1007, 1013 and 1016 to specifically disrupt actin filaments containing Tpm3.1 (FIG. 2). Briefly, SK-N-SH neuroblastoma cells were seeded at 2×10^4 cells/mL in a 10 cm tissue culture plate and left to plate down 24 hours prior to treatment. Cells were then treated with 0, 5 and 7.5 μM of the test compounds. 48 hours post treatment, cells were fixed with 4% w/v paraformaldehyde (PBS), permeabilized with Triton-X-100 and stained with γ9d (sheep polycolonal, 1:100) followed by 488-conjugated secondary (1:1000) and DAPI to visualize the Tpm3.1 containing filament bundles and the nucleus, respectively. Single plane images were obtained on the Zeiss epifluorescent Axioscope microscope using a 20× objective. Six fields of view per condition were imaged. Images were then exported and the linear features (actin filaments containing Tpm3.1) were then quantitated using the linear feature detection algorithm described above.

[8] = test system: actin cytoskeleton in SK-N-SH neuroblastoma cells; test: Microfilament disruption assay (phalloidin staining, linear feature quantitation); assay type: cell-based; conditions: 0-40 μM, 24 hours post treatment
Protocol: FIG. 1: Imaging and quantitation of actin filaments in SK-N-SH neuroblastoma cells treated with compound (A) 1007, (B) 1013 and (C) 1016. Cells were stained with 488-Atto-Phallodin and DAPI to visualize the actin filament bundles and the nucleus, respectively. Shown in the top panel is a representative gray scale immunofluorescent image from control (vehicle alone), 5 μM and 10 μM treated cells. […] The coloured lines indicate the detected actin filaments. Also shown is the quantitation of cell number, filament number/cell and filament number/cell area (μM^2). Statistical analysis was performed using a one way ANNOVA-multiple comparison where each drug treated group was compared to the control. ****p<0.0001, […].
The ability of compounds 1007, 1013 and 1016 to disrupt the actin cytoskeleton was assessed in vitro using the microfilament disruption assay (FIG. 1).
Briefly, SK-N-SH neuroblastoma cells were seeded at 1800 cells/well in a 384 Perkin Elmer High Content Imaging “Cell Carrier” plate and left to plate down 24 hours prior to treatment. Cells were then treated with 0-40 μM of the test compounds (1:2 serial dilution in a 10 point dose response). 24 hours post treatment, cells were fixed with 4% w/v paraformaldehyde (PBS), permeabilized with Triton-X-100 and stained with 488-Atto-Phallodin and DAPI to visualize the actin filament bundles and the nucleus respectively. Single plane images were obtained on the Perkin Elmer Opera confocal microscope using a 20× objective. Twelve fields of view per condition (representing approximately 300-800 cells) were imaged. Images were then exported and changes in the organization and numbers of actin filaments within the cell were quantitated using a linear feature detection algorithm developed by CSIRO (Vindin et al. 2014). This algorithm detects the “ridge lines” or “peaks” in local pixel intensity in the cell image. It is these “ridge lines” that correspond to actin filament bundles and allow us to quantitate the number of filaments per cell.

Skeletal myosin II = test: Actin-activated myosin II ATPase activity; assay type: biochemical; conditions: 50 μM, absence of Tpm3.1
Protocol: FIG. 4: Effect of anti-tropomyosin compounds on actin-activated myosin II ATPase activity. Skeletal myosin II (30-60 nM) was incubated with 1% (v/v) DMSO or 50 μM of Blebbistatin, TR100 or compound 1001 for 5 min prior to mixing with 3 μM F-actin. Reactions were initiated with 1 mM ATP and inorganic phosphate release was detected spectrophotometrically. Data represents mean±SEM, for n=2-4 independent repeats. **P-value, 0.001<0.01.
To exclude an off-target activity, the impact of compound 1001 and TR100 (another small molecule with anti-tropomyosin activity) on myosin II ATPase activity was evaluated in the absence of Tpm3.1. The small molecule blebbistatin was included as a positive control known to inhibit myosin II ATPase activity. Blebbistatin acts by binding to the myosin-ADP-Pi complex and slowing the release of inorganic phosphate (Kovacs et al., 2004). Myosin II was pre-incubated with 50 μM of blebbistatin, TR100 or 1001 prior to mixing with F-actin. […] Compound 1001 had no effect on myosin ATPase activity at equivalent concentrations to that of TR100 (FIG. 4).

Row | IC50 [1] | IC50 [2] | IC50 [3] | IC50 [4] | IC50 [5] | IC50 [6] | IC50 (SK-Mel-28 melanoma cells) | Compound | inhibition at 0.1 µM (TNF-α) | inhibition at 1 µM (TNF-α) | inhibition at 10 µM (TNF-α) | inhibition at 0.1 µM (IL-6) | inhibition at 1 µM (IL-6) | inhibition at 10 µM (IL-6) | inhibition at 0.1 µM (IL-23) | inhibition at 1 µM (IL-23) | inhibition at 10 µM (IL-23) | inhibition at 0.1 µM (IFN-γ) | inhibition at 1 µM (IFN-γ) | inhibition at 10 µM (IFN-γ) | inhibition at 0.1 µM (IL-21) | further results
1 | 3.8 µM | 2.9 µM | 2.9 µM | 3.4 µM | 3.3 µM | 3.7 µM | 3.5 µM | CN(C)CCCn1c2ccccc2c2cc(C(=O)N3CCN(CCc4ccc5c(c4)OCO5)CC3)ccc21 [Compound 1004, (4-(2-(benzo[d][1,3]dioxol-5-yl)ethyl)piperazin-1-yl)(9-(3-(dimethylamino)propyl)-9H-carbazol-3-yl)methanone] | 9% | -8% | 1% | -9% | -10% | 2% | -16% | 9% | 22% | -19% | -6% | -7% | -6% | inhibition at 1 µM (IL-21): -3%; inhibition at 10 µM (IL-21): 2%; inhibition at 0.1 µM (IL-17A): -2%; inhibition at 1 µM (IL-17A): 6%; inhibition at 10 µM (IL-17A): 47%
2 | 2.8 µM | 3.3 µM | 2.4 µM | 3.7 µM | 3.5 µM | 2 µM | 2 µM | CN1CCN(CCCn2c3ccccc3c3cc(C(=O)N4CCN(CCc5ccc(F)cc5)CC4)ccc32)CC1 [Compound 1013, (4-(4-fluorophenethyl)piperazin-1-yl)(9-(3-(4-methylpiperazin-1-yl)propyl)-9H-carbazol-3-yl)methanone] |  |  |  |  |  |  |  |  |  |  |  |  |  | disruption of Tpm3.1-containing actin filaments [7]: disrupt Tpm3.1-containing actin filaments in a dose-dependent manner; disruption of the actin cytoskeleton [8]: disrupt the actin cytoskeleton in a dose-dependent manner
3 | 2.5 µM | 4 µM | 2.7 µM | 3 µM | 2.8 µM | 3.1 µM | 2.4 µM | CN1CCN(CCCn2c3ccccc3c3cc(C(=O)N4CCN(CCc5cccc(F)c5)CC4)ccc32)CC1 [Compound 1016, (4-(3-fluorophenethyl)piperazin-1-yl)(9-(3-(4-methylpiperazin-1-yl)propyl)-9H-carbazol-3-yl)methanone] |  |  |  |  |  |  |  |  |  |  |  |  |  | disruption of Tpm3.1-containing actin filaments [7]: disrupt Tpm3.1-containing actin filaments in a dose-dependent manner; disruption of the actin cytoskeleton [8]: disrupt the actin cytoskeleton in a dose-dependent manner
4 | 1.6 µM | 2.9 µM | 1.9 µM | 2 µM | 3.3 µM | 1.5 µM | 2.5 µM | CN1CCN(CCCn2c3ccccc3c3cc(C(=O)N4CCN(CCc5ccccc5)CC4)ccc32)CC1 [Compound 1018, (4-phenethylpiperazin-1-yl)(9-(3-(4-methylpiperazin-1-yl)propyl)-9H-carbazol-3-yl)methanone] | 26% | 58% | 77% | 22% | 56% | 89% | -6% | -2% | 58% | 2% | 19% | 92% | 13% | inhibition at 1 µM (IL-21): 33%; inhibition at 10 µM (IL-21): 50%; inhibition at 0.1 µM (IL-17A): 2%; inhibition at 1 µM (IL-17A): 34%; inhibition at 10 µM (IL-17A): 45%
5 |  |  |  |  |  |  |  | CCCCCCCCNC(=O)/C(C#N)=C/c1c(C)n(CCCN(C)C)c2ccccc12 [TR100] |  |  |  |  |  |  |  |  |  |  |  |  |  | inhibition of actin-activated myosin ATPase activity (Skeletal myosin II): ~70%
6 |  |  |  |  |  |  |  | Cc1ccc2c(c1)C(=O)C1(O)CCN(c3ccccc3)C1=N2 (stereo not shown) [blebbistatin] |  |  |  |  |  |  |  |  |  |  |  |  |  | effect on actin-activated myosin II ATPase activity (Skeletal myosin II): strongly inhibited
